# Results: PMC6582051, “Identification of a natural ligand of the hazel allergen Cor a 1” (Scientific Reports, 2019)
# Target: T1, Cor a 1.0401 (Corylus avellana, UniProt Q9SWR4)
# T1 construct: gene CORA1.0401; tagless full-length recombinant, 160 aa, E. coli (pET11a, codon-optimised synthetic gene), 15N or 13C/15N labelled
# T1 sequence (Q9SWR4 2-161 limits assumed): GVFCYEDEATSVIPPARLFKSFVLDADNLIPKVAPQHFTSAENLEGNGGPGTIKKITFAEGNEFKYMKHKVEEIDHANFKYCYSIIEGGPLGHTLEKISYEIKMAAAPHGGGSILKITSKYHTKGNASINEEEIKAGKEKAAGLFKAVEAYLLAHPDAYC
# Assay: 1H, […] HSQC NMR titration
# Type: binding
# Conditions: 298 K, 60 uM protein, up to equimolar ligand, 2.2% DMSO; hydrophobic pocket
smiles,measurement,value
O=c1c(O)c(-c2ccc(O)c(O)c2)oc2cc(O)cc(O)c12 [quercetin],"1H,15N HSQC NMR titration",amino acids that were strongest affected by quercetin binding are highlighted in red
